Results from patent publication US9120770B2, “Substituted pyridine and pyrazine compounds as PDE4 inhibitors” (DART NEUROSCIENCE (CAYMAN) LTD., priority 2013, dated 2015).

What follows are molecules tested against PDE4D3 (Homo sapiens, UniProt Q08499).
Chain of PDE4D3 (Q08499 1-673 isoform Q08499-2): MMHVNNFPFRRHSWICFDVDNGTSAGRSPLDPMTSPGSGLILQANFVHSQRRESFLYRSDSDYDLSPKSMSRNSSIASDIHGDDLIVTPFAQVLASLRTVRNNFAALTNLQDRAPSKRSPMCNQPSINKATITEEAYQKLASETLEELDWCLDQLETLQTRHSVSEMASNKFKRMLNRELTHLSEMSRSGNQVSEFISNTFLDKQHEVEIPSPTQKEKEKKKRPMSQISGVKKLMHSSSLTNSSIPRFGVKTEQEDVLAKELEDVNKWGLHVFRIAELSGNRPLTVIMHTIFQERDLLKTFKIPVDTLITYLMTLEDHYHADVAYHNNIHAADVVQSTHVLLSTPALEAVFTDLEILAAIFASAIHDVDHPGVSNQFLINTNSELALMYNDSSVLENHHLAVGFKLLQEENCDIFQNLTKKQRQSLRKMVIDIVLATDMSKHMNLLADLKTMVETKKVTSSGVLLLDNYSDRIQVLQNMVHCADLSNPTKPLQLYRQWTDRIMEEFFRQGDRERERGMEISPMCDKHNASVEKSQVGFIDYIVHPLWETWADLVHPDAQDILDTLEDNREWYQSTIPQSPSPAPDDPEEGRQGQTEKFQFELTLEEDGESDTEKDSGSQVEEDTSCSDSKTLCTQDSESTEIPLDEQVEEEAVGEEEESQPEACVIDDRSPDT
Molecule `COc1ncc(Cc2cnc(N)nc2)cc1-c1ccnc(OC(F)F)c1` [Example 47, 5-({5-[2-(Difluoromethoxy)pyridin-4-yl]-6-methoxypyridin-3-yl}methyl)pyrimidin-2-amine] has an EC50 of less than 100 nM.
`COc1ncc(Cc2cnc(C(C)(C)O)nc2)cc1-c1cccc(OC(F)F)c1` [Example 48, 2-[5-({5-[3-(Difluoromethoxy)phenyl]-6-methoxypyridin-3-yl}methyl)pyrimidin-2-yl]propan-2-ol] showed an EC50 of less than 100 nM.
`COc1ncc(Cc2ccc(C(F)(F)F)nc2)cc1-c1cccc(Cl)c1` [Example 49, 3-(3-Chlorophenyl)-2-methoxy-{[6-(trifluoromethyl)pyridin-3-yl]methyl}pyridine] gave an EC50 of 100 to 1000 nM.
For `CC(C)Oc1ccc(Cc2cnc(OC(F)F)c(-c3cccc(Cl)c3)c2)cn1` [Example 50, 3-(3-Chlorophenyl)-2-(difluoromethoxy)-5-{[6-(propan-2-yloxy)pyridin-3-yl]methyl}pyridine], the EC50 was 1000 to 10000 nM.
Work on `CCCOc1ccc(Cc2cnc(OC(F)F)c(-c3cccc(Cl)c3)c2)cn1` [Example 51, 3-(3-Chlorophenyl)-2-(difluoromethoxy)-5-[(6-propoxypyridin-3-yl)methyl]pyridine] yielded an EC50 of 100 to 1000 nM.
In the case of `COc1ncc(Cc2ccc(=O)n(C)c2)cc1-c1cccc(Cl)c1` [Example 52, 5-{[5-(3-Chlorophenyl)-6-methoxypyridin-3-yl]methyl}-1-methyl-1,2-dihydropyridin-2-one], the EC50 is reported as 1000 to 10000 nM.
For `COc1ncc(Cc2ccncc2)cc1-c1cccc(Cl)c1` [Example 53, 3-(3-Chlorophenyl)-2-methoxy-5-(pyridin-4-ylmethyl)pyridine], the EC50 was 100 to 1000 nM.
Molecule `O=C(O)c1ccc(Cc2cnc(OC(F)F)c(-c3cccc(Cl)c3)c2)cn1` [Example 54, 5-{[5-(3-Chlorophenyl)-6-(difluoromethoxy)pyridin-3-yl]methyl}pyridine-2-carboxylic acid] has an EC50 of 1000 to 10000 nM.
Work on `COc1ncc(Cc2cnc(OC)c(-c3cccc(Cl)c3)n2)cn1` [Example 55, 3-(3-Chlorophenyl)-2-methoxy-5-[(2-methoxypyrimidin-5-yl)methyl]pyrazine] yielded an EC50 of less than 100 nM.
`CNc1ncc(Cc2cnc(OC)c(-c3cccc(Cl)c3)n2)cn1` [Example 56, 5-{[6-(3-Chlorophenyl)-5-methoxypyrazin-2-yl]methyl}-N-methylpyrimidin-2-amine] showed an EC50 of less than 100 nM.
For `COc1ncc(Cc2cnc(NC3CC3)nc2)nc1-c1cccc(Cl)c1` [Example 57, 5-{[6-(3-Chlorophenyl)-5-methoxypyrazin-2-yl]methyl}-N-cyclopropylpyrimidin-2-amine], the EC50 was 100 to 1000 nM.
In the case of `COc1ncc(Cc2cnn(C)c2)nc1-c1cccc(Cl)c1` [Example 58, 3-(3-Chlorophenyl)-2-methoxy-5-[(1-methyl-1H-pyrazol-4-yl)methyl]pyrazine], the EC50 is reported as less than 100 nM.
With `COc1ncc(Cc2ccc(CN)cc2)cc1-c1cccc(Cl)c1` [Example 59, (4-{[5-(3-Chlorophenyl)-6-methoxypyridin-3-yl]methyl}phenyl)methanamine] the EC50 was 100 to 1000 nM.
With `COc1ncc(Cc2ccnc(N)c2)cc1-c1cccc(Cl)c1` [Example 60, 4-{[5-(3-Chlorophenyl)-6-methoxypyridin-3-yl]methyl}pyridin-2-amine] the EC50 was 100 to 1000 nM.
`COc1ncc(Cc2cc(C)nc(C)c2)cc1-c1cccc(Cl)c1` [Example 61, 3-(3-Chlorophenyl)-5-[(2,6-dimethylpyridin-4-yl)methyl]-2-methoxypyridine] was tested, and the EC50 was 1000 to 10000 nM.
`COc1ncc(Cc2ccnc(C#N)c2)cc1-c1cccc(Cl)c1` [Example 62, 4-{[5-(3-Chlorophenyl)-6-methoxypyridin-3-yl]methyl}pyridine-2-carbonitrile] gave an EC50 of 1000 to 10000 nM.
`COc1ncc(Cc2ccnc(C(N)=O)c2)cc1-c1cccc(Cl)c1` [Example 63, 4-{[5-(3-Chlorophenyl)-6-methoxypyridin-3-yl]methyl}pyridine-2-carboxamide] showed an EC50 of 1000 to 10000 nM.
Molecule `COc1ncc(Cc2cccnc2)cc1-c1cccc(Cl)c1` [Example 64, 3-(3-Chlorophenyl)-2-methoxy-5-(pyridin-3-ylmethyl)pyridine] has an EC50 of 100 to 1000 nM.
`COc1ncc(Cc2cncs2)cc1-c1cccc(Cl)c1` [Example 65, 3-(3-Chlorophenyl)-2-methoxy-5-(1,3-thiazol-5-ylmethyl)pyridine] was tested, and the EC50 was less than 100 nM.
`COc1ncc(Cc2sc(C)nc2C)cc1-c1cccc(Cl)c1` [Example 66, 3-(3-Chlorophenyl)-5-[(dimethyl-1,3-thiazol-5-yl)methyl]-2-methoxypyridine] was tested, and the EC50 was less than 100 nM.
Molecule `COc1ncc(Cc2cnc(OC)c(-c3cccc(Cl)c3)c2)cc1C` [Example 67, 3-(3-Chlorophenyl)-2-methoxy-5-[(6-methoxy-5-methylpyridin-3-yl)methyl]pyridine] has an EC50 of 100 to 1000 nM.
With `FC(F)Oc1ncc(Cc2cncs2)cc1-c1cccc(Cl)c1` [Example 68, 3-(3-Chlorophenyl)-2-(difluoromethoxy)-5-(1,3-thiazol-5-ylmethyl)pyridine] the EC50 was less than 100 nM.
Work on `Cc1nc(C)c(Cc2cnc(OC(F)F)c(-c3cccc(Cl)c3)c2)s1` [Example 69, 3-(3-Chlorophenyl)-2-(difluoromethoxy)-5-[(dimethyl-1,3-thiazol-5-yl)methyl]pyridine] yielded an EC50 of less than 100 nM.
`NC(=O)c1cncc(Cc2cnc(OC(F)F)c(-c3cccc(Cl)c3)c2)c1` [Example 70, 5-{[5-(3-Chlorophenyl)-6-(difluoromethoxy)pyridin-3-yl]methyl}pyridine-3-carboxamide] showed an EC50 of 1000 to 10000 nM.
`NCc1cncc(Cc2cnc(OC(F)F)c(-c3cccc(Cl)c3)c2)c1` [Example 71, (5-{[5-(3-Chlorophenyl)-6-(difluoromethoxy)pyridin-3-yl]methyl}pyridin-3-yl)methanamine] showed an EC50 of less than 100 nM.
Molecule `Cc1ccc(Cc2cnc(OC(F)F)c(-c3cccc(Cl)c3)c2)cn1` [Example 72, 3-(3-Chlorophenyl)-2-(difluoromethoxy)-5-[(6-methylpyridin-3-yl)methyl]pyridine] has an EC50 of less than 100 nM.
`Cc1ncc(Cc2cnc(OC(F)F)c(-c3cccc(Cl)c3)c2)s1` [Example 73, 3-(3-Chlorophenyl)-2-(difluoromethoxy)-5-[(2-methyl-1,3-thiazol-5-yl)methyl]pyridine] gave an EC50 of less than 100 nM.
`FC(F)Oc1ncc(Cc2nccs2)cc1-c1cccc(Cl)c1` [Example 74, 3-(3-Chlorophenyl)-2-(difluoromethoxy)-5-(1,3-thiazol-2-ylmethyl)pyridine] showed an EC50 of 100 to 1000 nM.
Molecule `COc1ncc(Cc2cnc(C)nc2)cc1-c1cccc(Cl)c1` [Example 75, 5-{[5-(3-Chlorophenyl)-6-methoxypyridin-3-yl]methyl}-2-methylpyrimidine] has an EC50 of 100 to 1000 nM.
With `COc1ncc(Cc2cnc(OC)c(-c3cccc(Cl)c3)c2)cn1` [Example 76, 5-{[5-(3-Chlorophenyl)-6-methoxypyridin-3-yl]methyl}-2-methoxypyrimidine] the EC50 was less than 100 nM.
Work on `COc1ncc(Cc2cnc(NC(C)C)nc2)cc1-c1cccc(Cl)c1` [Example 77, 5-{[5-(3-Chlorophenyl)-6-methoxypyridin-3-yl]methyl}-N-(propan-2-yl)pyrimidin-2-amine] yielded an EC50 of 1000 to 10000 nM.
For `COc1ncc(Cc2cncnc2)cc1-c1cccc(Cl)c1` [Example 78, 5-{[5-(3-Chlorophenyl)-6-methoxypyridin-3-yl]methyl}pyrimidine], the EC50 was less than 100 nM.
Molecule `COc1ncc(Cc2cnn(C)c2)cc1-c1cccc(Cl)c1` [Example 79, 3-(3-Chlorophenyl)-2-methoxy-5-[(1-methyl-1H-pyrazol-4-yl)methyl]pyridine] has an EC50 of less than 100 nM.
In the case of `COc1ncc(Cc2cn[nH]c2)cc1-c1cccc(Cl)c1` [Example 80, 3-(3-Chlorophenyl)-2-methoxy-5-(1H-pyrazol-4-ylmethyl)pyridine], the EC50 is reported as less than 100 nM.
With `CNc1ncc(Cc2cnc(OC)c(-c3cccc(Cl)c3)c2)cn1` [Example 81, 5-{[5-(3-Chlorophenyl)-6-methoxypyridin-3-yl]methyl}-N-methylpyrimidin-2-amine] the EC50 was 100 to 1000 nM.
`COc1ncc(Cc2cnc(NC3CC3)nc2)cc1-c1cccc(Cl)c1` [Example 82, 5-{[5-(3-Chlorophenyl)-6-methoxypyridin-3-yl]methyl}-N-cyclopropylpyrimidin-2-amine] showed an EC50 of less than 100 nM.
In the case of `COc1ncc(Cc2cnc(N(C)C)nc2)cc1-c1cccc(Cl)c1` [Example 83, 5-{[5-(3-Chlorophenyl)-6-methoxypyridin-3-yl]methyl}-N,N-dimethylpyrimidin-2-amine], the EC50 is reported as 100 to 1000 nM.
With `COc1ncc(Cc2cnc(NCC(F)(F)F)nc2)cc1-c1cccc(Cl)c1` [Example 84, 5-{[5-(3-Chlorophenyl)-6-methoxypyridin-3-yl]methyl}-N-(2,2,2-trifluoroethyl)pyrimidin-2-amine] the EC50 was less than 100 nM.
With `COC(=O)c1ccc(Cc2cnc(OC)c(-c3cccc(Cl)c3)n2)cc1` [Example 85, Methyl 4-{[6-(3-chlorophenyl)-5-methoxypyrazin-2-yl]methyl}benzoate] the EC50 was 100 to 1000 nM.
`COc1ncc(Cc2ccc(C#N)cc2)nc1-c1cccc(Cl)c1` [Example 86, 4-{[6-(3-Chlorophenyl)-5-methoxypyrazin-2-yl]methyl}benzonitrile] was tested, and the EC50 was 100 to 1000 nM.
`COc1ncc(Cc2cnc(N)nc2)nc1-c1cccc(Cl)c1` [Example 87, 5-{[6-(3-Chlorophenyl)-5-methoxypyrazin-2-yl]methyl}pyrimidin-2-amine] showed an EC50 of less than 100 nM.
In the case of `COc1ncc(Cc2ccc(F)cc2)cc1-c1cccc(Cl)c1` [Example 88, 3-(3-Chlorophenyl)-5-[(4-fluorophenyl)methyl]-2-methoxypyridine], the EC50 is reported as 100 to 1000 nM.
In the case of `Nc1ncc(Cc2cnc(OC(F)F)c(-c3cccc(Cl)c3)c2)cn1` [Example 89, 5-{[5-(3-Chlorophenyl)-6-(difluoromethoxy)pyridin-3-yl]methyl}pyrimidin-2-amine], the EC50 is reported as less than 100 nM.
In the case of `COc1ncc(Cc2ccc(C(N)=O)nc2)nc1-c1cccc(Cl)c1` [Example 90, 5-{[6-(3-Chlorophenyl)-5-methoxypyrazin-2-yl]methyl}pyridine-2-carboxamide], the EC50 is reported as 100 to 1000 nM.
Molecule `FC(F)Oc1ncc(Cc2cnc(NC3CC3)nc2)cc1-c1cccc(Cl)c1` [Example 91, 5-{[5-(3-Chlorophenyl)-6-(difluoromethoxy)pyridin-3-yl]methyl}-N-cyclopropylpyrimidin-2-amine] has an EC50 of 100 to 1000 nM.
`COc1ncc(Cc2cnc(OC(F)F)c(-c3cccc(Cl)c3)c2)cn1` [Example 92, 5-{[5-(3-Chlorophenyl)-6-(difluoromethoxy)pyridin-3-yl]methyl}-2-methoxypyrimidine] gave an EC50 of less than 100 nM.
